From patent US20200347043A1, “MODULATORS OF THE INTEGRATED STRESS PATHWAY” (Calico Life Sciences LLC, priority 2019, published 2020) come the findings set out here.

The subject of the assay is HEK293T cells carrying the ATF4 luciferase reporter. In words: ATF4-Luc assay (in vitro model of VWMD). The conditions noted are these: 1 μg/mL tunicamycin, 7 hours, One Glo luminescence. Format: cell-based, human. The method, then: In order to test exemplary compounds of the invention in a cellular context, a stable VWMD cell line was first constructed. The ATF4 reporter was prepared by fusing the human full-length ATF4 5′-UTR (NCBI Accession No. BC022088.2) in front of the firefly luciferase (FLuc) coding sequence lacking the initiator methionine as described in Sidrauski et al (eLife 2013). The construct was used to produce recombinant retroviruses using standard methods and the resulting viral supernatant was used to transduce HEK293T cells, which were then subsequently selected with puromycin to generate a stable cell line.
HEK293T cells carrying the ATF4 luciferase reporter were plated on polylysine coated 384-well plates (Greiner Bio-one) at 30,000 cells per well. Cells were treated the next day with 1 μg/mL tunicamycin and 200 nM of a compound of Formula (I) for 7 hours. Luminescence was measured using One Glo (Promega) as specified by the manufacturer. Cells were maintained in DMEM with L-glutamine supplemented with 10% heat-inactivated FBS (Gibco) and Antibiotic-Antimycotic solution (Gibco).
Table 4 below summarizes the EC50 data obtained using the ATF4-Luc assay for exemplary compounds of the invention.

SMILES strings stand for the structures.

Take `O=C(NC12CC(N3CCC(c4ccc(Cl)cc4)C3=O)(C1)C2)[C@H]1C[C@@H](O)c2cc(Cl)ccc2O1` (single isomer, unassigned) [Compound 226, (2R,4R)-6-chloro-N-{3-[(3S*)-3-(4-chlorophenyl)-2-oxopyrrolidin-1-yl]bicyclo[1.1.1]pentan-1-yl}-4-hydroxy-3,4-dihydro-2H-1-benzopyran-2-carboxamide]: the EC50 was in the range of 500 to 2000 nM.

With `O=C(NCc1ccc(C(F)(F)F)cn1)[C@H]1C[C@H]2O[C@@H]1C[C@@H]2NC(=O)[C@H]1C[C@@H](O)c2cc(Cl)ccc2O1` (mixture of isomers) [Compound 313, (2R,4R)-6-chloro-4-hydroxy-N-[(1RS,2SR,4RS,5SR)-5-({[5-(trifluoromethyl)pyridin-2-yl]methyl}carbamoyl)-7-oxabicyclo[2.2.1]heptan-2-yl]-3,4-dihydro-2H-1-benzopyran-2-carboxamide], under “Homo sapiens, HEK-293T”, the concentration for a half-maximal effect (EC50) fell in the range of 250 to 500 nM.

On to `O=C(N[C@H]1CC[C@H](C(=O)NCc2ccc(C(F)(F)F)cn2)CC1)[C@H]1C[C@@H](O)c2cc(Cl)ccc2O1` [Compound 105], for which, where the note is “Homo sapiens, HEK-293T”, the concentration for a half-maximal effect (EC50) was less than 10 nM.

In the case of `O=C(NC12CCC(c3nnc([C@H]4C[C@@H](OC(F)(F)F)C4)o3)(C1)C2)[C@H]1C[C@@H](O)c2cc(Cl)ccc2O1` (racemic) [Compound 160, rac-(2R,4R)-6-chloro-4-hydroxy-N-(4-{5-[(1s,3S)-3-(trifluoromethoxy)cyclobutyl]-1,3,4-oxadiazol-2-yl}bicyclo[2.1.1]hexan-1-yl)-3,4-dihydro-2H-1-benzopyran-2-carboxamide], the EC50 (Homo sapiens, HEK-293T) lay within 50 to 250 nM.

Turning to `O=C1C[C@H](C(=O)N[C@H]2CC[C@H](C(=O)N3CC(c4ccc(Cl)cc4)C3)CC2)Oc2ccc(Cl)cc21` [Compound 173, (2R)-6-chloro-N-{trans-4-[3-(4-chlorophenyl)azetidine-1-carbonyl]cyclohexyl}-4-oxo-3,4-dihydro-2H-1-benzopyran-2-carboxamide], under “Homo sapiens, HEK-293T”, the concentration giving a half-maximal response (EC50) was in the range of 10 to 50 nM.

Turning to `O=C(NC12CC(n3ccc(-c4ccc(Cl)cc4)c3)(C1)C2)[C@H]1C[C@@H](O)c2cc(Cl)ccc2O1` [Compound 240, (2R,4R)-6-chloro-N-{3-[3-(4-chlorophenyl)-1H-pyrrol-1-yl]bicyclo[1.1.1]pentan-1-yl}-4-hydroxy-3,4-dihydro-2H-1-benzopyran-2-carboxamide], the concentration giving a half-maximal response (EC50) (Homo sapiens, HEK-293T) was less than 10 nM.

For the compound `O=C(N[C@H]1CC[C@H](N2CCN(c3ccc(C(F)(F)F)nc3)C2=O)CC1)[C@H]1C[C@@H](O)c2cc(Cl)ccc2O1` [Compound 310], the half-maximal effective concentration (EC50) (Homo sapiens, HEK-293T) was 50 to 250 nM.

Take `O=C(NC12CCC(c3nnc([C@H]4C[C@@H](OC(F)(F)F)C4)o3)(CC1)OC2)[C@@H]1C[C@H](O)c2cc(Cl)ccc2O1` [Compound 190, (2S,4S)-6-chloro-4-hydroxy-N-(1-{5-[cis-3-(trifluoromethoxy)cyclobutyl]-1,3,4-oxadiazol-2-yl}-2-oxabicyclo[2.2.2]octan-4-yl)-3,4-dihydro-2H-1-benzopyran-2-carboxamide]: the concentration for a half-maximal effect (EC50) (Homo sapiens, HEK-293T) was 50 to 250 nM.

With `O=C(NCc1ccc(C(F)(F)F)cc1)[C@@H]1CC[C@@H](NC(=O)[C@H]2C[C@@H](O)c3cc(Cl)ccc3O2)CO1` (racemic) [Compound 121, (2R,4R)-6-chloro-4-hydroxy-N-[(3R,6S)-6-({[4-(trifluoromethyl)phenyl]methyl}carbamoyl)oxan-3-yl]-3,4-dihydro-2H-1-benzopyran-2-carboxamide and (2S,4S)-6-chloro-4-hydroxy-N-[(3R,6S)-6-({[4-(trifluoromethyl)phenyl]methyl}carbamoyl)oxan-3-yl]-3,4-dihydro-2H-1-benzopyran-2-carboxamide], for the setting “Homo sapiens, HEK-293T”, the EC50 lay in the range of 10 to 50 nM.

In the case of `O=C(NC12CCC(C(=O)N[C@H]3C[C@@H](OC(F)(F)F)C3)(CC1)OC2)[C@H]1C[C@@H](O)c2cc(Cl)ccc2O1` [Compound 205, (2R,4R)-6-chloro-4-hydroxy-N-(1-{[cis-3-(trifluoromethoxy)cyclobutyl]carbamoyl}-2-oxabicyclo[2.2.2]octan-4-yl)-3,4-dihydro-2H-1-benzopyran-2-carboxamide], the EC50 (Homo sapiens, HEK-293T) lay in the range of 50 to 250 nM.

`O=C(CO[C@H]1C[C@@H](OC(F)(F)F)C1)NC12CC(NC(=O)[C@H]3C[C@H](O)c4cc(Cl)ccc4O3)(C1)C2` (single isomer, unassigned) [Compound 293]: the half-maximal effective concentration (EC50) (Homo sapiens, HEK-293T) is less than 10 nM.

Take `O=C(NC12CC(c3cc([C@H]4C[C@@H](OC(F)(F)F)C4)on3)(C1)C2)[C@@H]1C[C@@H](O)c2cc(Cl)ccc2O1` [Compound 283, (2S,4R)-6-chloro-4-hydroxy-N-(3-{5-[cis-3-(trifluoromethoxy)cyclobutyl]-1,2-oxazol-3-yl}bicyclo[1.1.1]pentan-1-yl)-3,4-dihydro-2H-1-benzopyran-2-carboxamide]: the EC50 (Homo sapiens, HEK-293T) lay within 50 to 250 nM.

Regarding `O=C(NC12CC(N3CC(c4ccc(Cl)cc4)OC3=O)(C1)C2)[C@@H]1C[C@@H](O)c2cc(Cl)ccc2O1` (stereo partly drawn) [Compound 278, (2S,4R)-6-chloro-N-{3-[5-(4-chlorophenyl)-2-oxo-1,3-oxazolidin-3-yl]bicyclo[1.1.1]pentan-1-yl}-4-hydroxy-3,4-dihydro-2H-1-benzopyran-2-carboxamide], the EC50 (Homo sapiens, HEK-293T) fell in the range of 500 to 2000 nM.

In the case of `O=C(NC12CCC(c3nnc([C@H]4C[C@@H](OC(F)(F)F)C4)o3)(CC1)OC2)C1CC(O)c2cc(Cl)ccc2O1` (some centres unmarked) [Compound 165], the EC50 (Homo sapiens, HEK-293T) is 10 to 50 nM.

Consider `O=C(CO[C@H]1C[C@@H](OC(F)(F)F)C1)N[C@H]1CC[C@H](C(=O)NCc2ccc(C(F)(F)F)cn2)CC1` [Compound 158, (1r,4r)-4-(2-{[(1s,3s)-3-(trifluoromethoxy)cyclobutyl]oxy}acetamido)-N-([5-(trifluoromethyl)pyridin-2-yl]methyl)cyclohexane-1-carboxamide], for which the EC50 (Homo sapiens, HEK-293T) is greater than 2000 nM.

Take `O=C(N[C@@H]1CC[C@@H](C(=O)N2CC(Oc3ccc(Cl)cc3)C2)OC1)[C@H]1C[C@@H](O)c2cc(Cl)ccc2O1` (racemic) [Compound 122, (2R,4R)-6-chloro-N-(3R,6S)-6-[3-(4-chlorophenoxy)azetidine-1-carbonyl]oxan-3-yl)-4-hydroxy-3,4-dihydro-2H-1-benzopyran-2-carboxamide and (2S,4S)-6-chloro-N-{(3R,6S)-6-[3-(4-chlorophenoxy)azetidine-1-carbonyl]oxan-3-yl}-4-hydroxy-3,4-dihydro-2H-1-benzopyran-2-carboxamide]: the 50% effective concentration (EC50) (Homo sapiens, HEK-293T) was in the range of 10 to 50 nM.

Regarding `O=C(COc1ccc(Cl)c(F)c1)N[C@H]1CC[C@H](NC(=O)C2CC(O)c3cc(Cl)ccc3O2)CC1` (some centres unmarked) [Compound 141, 6-chloro-N-{(1r,4r)-4-[2-(4-chloro-3-fluorophenoxy)acetamido]cyclohexyl}-4-hydroxy-3,4-dihydro-2H-1-benzopyran-2-carboxamide], the 50% effective concentration (EC50) (Homo sapiens, HEK-293T) lay within 10 to 50 nM.

`O=C(COc1ccc(Cl)c(F)c1)NC12CCC(c3nnc([C@H]4C[C@@H](OC(F)(F)F)C4)o3)(CC1)CC2O` (some centres unmarked) [Compound 124, 2-(4-chloro-3-fluorophenoxy)-N-(2-hydroxy-4-{5-[(1s,3s)-3-(trifluoromethoxy)cyclobutyl]-1,3,4-oxadiazol-2-yl}bicyclo[2.2.2]octan-1-yl)acetamide]: the concentration giving a half-maximal response (EC50) (Homo sapiens, HEK-293T) is 10 to 50 nM.

For `O=C(CO[C@H]1C[C@@H](OC(F)(F)F)C1)N[C@H]1C[C@H]2C[C@@H]1C[C@@H]2NC(=O)[C@H]1C[C@@H](O)c2cc(Cl)ccc2O1` (relative stereo) [Compound 210, (2R,4R)-6-chloro-4-hydroxy-N-[(1R*,2S*,4R*,5S*)-5-(2-{[cis-3-(trifluoromethoxy)cyclobutyl]oxy}acetamido)bicyclo[2.2.1]heptan-2-yl]-3,4-dihydro-2H-1-benzopyran-2-carboxamide], for the setting “Homo sapiens, HEK-293T”, the EC50 is less than 10 nM.

For the compound `O=C1C[C@@H](C(=O)NC23CC(c4nnc(COc5ccc(Cl)c(F)c5)o4)(C2)C3)Oc2ccc(Cl)cc21` [Compound 109, (2S)-6-chloro-N-(3-{5-[(4-chloro-3-fluorophenoxy)methyl]-1,3,4-oxadiazol-2-yl}bicyclo[1.1.1]pentan-1-yl)-4-oxo-3,4-dihydro-2H-1-benzopyran-2-carboxamide], the EC50 (Homo sapiens, HEK-293T) was 10 to 50 nM.

Turning to `O=C(NC12CC(n3ccc(-c4ccc(C(F)(F)F)nc4)c3)(C1)C2)[C@H]1C[C@@H](O)c2cc(Cl)ccc2O1` [Compound 244, (2R,4R)-6-chloro-4-hydroxy-N-(3-{3-[6-(trifluoromethyl)pyridin-3-yl]-1H-pyrrol-1-yl}bicyclo[1.1.1]pentan-1-yl)-3,4-dihydro-2H-1-benzopyran-2-carboxamide], the half-maximal effective concentration (EC50) (Homo sapiens, HEK-293T) is less than 10 nM.

On to `O=C(N[C@@H]1CC[C@@H](c2ncc([C@H]3C[C@@H](OC(F)(F)F)C3)o2)OC1)[C@H]1C[C@@H](O)c2cc(Cl)ccc2O1` [Compound 292, (2R,4R)-6-chloro-4-hydroxy-N-[(3R,6S)-6-{5-[3-(trifluoromethoxy)cyclobutyl]-1,3-oxazol-2-yl}oxan-3-yl]-3,4-dihydro-2H-1-benzopyran-2-carboxamide], for which the EC50 (Homo sapiens, HEK-293T) is less than 10 nM.

For `O=C(NC12CC(C3NC(COc4ccc(Cl)c(F)c4)=NO3)(C1)C2)[C@H]1C[C@@H](O)c2cc(Cl)ccc2O1` (stereo partly drawn) [Compound 154, (2R,4R)-6-chloro-N-(3-{3-[(4-chloro-3-fluorophenoxy)methyl]-4,5-dihydro-1,2,4-oxadiazol-5-yl}bicyclo[1.1.1]pentan-1-yl)-4-hydroxy-3,4-dihydro-2H-1-benzopyran-2-carboxamide], the 50% effective concentration (EC50) (Homo sapiens, HEK-293T) fell in the range of 10 to 50 nM.

For orientation: EC50 means the concentration needed to bring the measured effect to its halfway point.
